Common to all, as to experiment: NCI anticancer screen, dose series, 48 h
Experiment [1] deals with KM12 colon.
The subject of experiment [2] is HCT-15 colon.
Experiment [3] deals with UO-31 renal.
Experiment [4] concerns CCRF-CEM leukemia.
Experiment [5] has as its system DU-145 prostate.
In experiment [6] the test system is HT29 colon.
Experiment [7] relates to HCT-116 colon.
The test system of experiment [8] is SNB-19 CNS.
The test system of experiment [9] is SNB-75 CNS.
The test system of experiment [10] is K-562 leukemia.

Where “and” joins values, the source holds several entries; their conditions need not be identical. Equal entries are not always repeated.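 Compound exposure: 48 hours, 5 concentrations, 96-well plates. GI50 is the concentration that inhibits growth by half. At the TGI there is no net growth.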 Bounds are passed on as bounds.

Take `COc1ccc2c(c1)C(=O)c1c-2n(CCCI)c(=O)c2cc([N+](=O)[O-])ccc12`: the GI50 in experiment [1] was 0.939 µM and 1.77 µM; in experiment [2] it was 1.05 µM and 1.13 µM; in experiment [3], 0.36 µM and 0.0716 µM; in [4] it was 0.0254 µM and 0.0153 µM; in experiment [5] it was 0.0541 µM and 0.0341 µM; in experiment [6] it was 0.16 µM and 0.437 µM. The GI50 in experiment [7] is 0.0721 µM and 0.0453 µM; in experiment [8] it was 0.313 µM and 0.131 µM; in [9], 0.198 µM and 0.368 µM; in experiment [10], 0.0596 µM and 0.19 µM. The TGI was 50 µM and 46.6 µM in experiment [1]; 50 µM and 28 µM in experiment [2]; 13.1 µM and 10.4 µM in experiment [3]; 0.172 µM and 0.811 µM in [5]; 1.02 µM and 1.94 µM in [7]; 36.9 µM and > 100 µM in experiment [8]. For the same compound, the TGI in experiment [9] is 2.37 µM and 15.2 µM; in experiment [10] it was 50 µM and > 100 µM.

Regarding `Cc1cccc(NC(=O)c2cccc([N+](=O)[O-])c2O)c1C`, the TGI is greater than 69.4 µM in [1]; greater than 100 µM in [2]; 74.7 µM in [3]; greater than 31.6 µM in experiment [4]; greater than 100 µM in experiment [5]; greater than 100 µM in [6]. Besides, the TGI was greater than 100 µM in [7], greater than 100 µM in experiment [8], 81.1 µM in experiment [9] and greater than 31.6 µM in experiment [10].

Consider `COc1cccc(/C=N/C(/N=C/c2cccc(OC)c2O)c2cccc(OC)c2O)c1O`, for which the TGI was 76.7 µM in experiment [1]; greater than 100 µM in experiment [2]; 58.6 µM in experiment [3]; greater than 100 µM in experiment [4]; 78.7 µM in [5]; greater than 100 µM in experiment [6]. In addition, the TGI in experiment [7] was greater than 100 µM; in [8], greater than 100 µM; in experiment [9] it was 48.1 µM; in [10] it was greater than 100 µM.

Turning to `CC(=O)OCc1cc2ccccc2nc1C(Br)(Br)Br`, the TGI in experiment [1] came to 27.6 µM; in [2], 54.7 µM; in experiment [3] it was 29.5 µM; in experiment [4], 29.3 µM; in experiment [5], 23.9 µM; in [6] it was 44.9 µM. For the same compound, the TGI is 31.6 µM in experiment [7], 46.2 µM in experiment [8], 39.9 µM in experiment [9] and 45.4 µM in [10].

`Cc1ccc(O)c(NC(=O)c2ccc(CNc3ccnc(C(F)(F)F)c3)cc2)c1`: the GI50 is 4.75 µM in [1]; 5.19 µM in experiment [2]; 1.12 µM in experiment [3]; 0.496 µM in experiment [4]; 12.8 µM in experiment [5]; 23.1 µM in experiment [6]. Moreover, the GI50 in experiment [7] is 13.7 µM; in [8], 6.15 µM; in [9], 22.5 µM; in experiment [10], 1.54 µM. Also, the TGI in experiment [1] was 24.3 µM; in experiment [2], 76.3 µM; in experiment [3], 13.3 µM; in [4], 17.7 µM; in experiment [5], 39.4 µM; in experiment [6], greater than 100 µM. Besides, the TGI in experiment [7] was determined as 37.4 µM; in experiment [8] it was 48 µM; in experiment [9] it was 90.3 µM; in experiment [10] it was 17.9 µM.

As to `CC(C(O)c1ccccc1)C(O)(C(F)(F)F)C(F)(F)F` (stereo not drawn), the TGI in experiment [1], in experiment [2], in experiment [3], in experiment [4], in experiment [5] and in experiment [6] was greater than 100 µM throughout. The TGI in experiment [7], in experiment [8], in experiment [9] and in experiment [10] was greater than 100 µM in each case.

Turning to `COc1cc(Nc2ncc(F)c(Nc3ccc4c(n3)N(COP(=O)(O)O)C(=O)C(C)(C)O4)n2)cc(OC)c1OC`, the GI50 is 0.498 µM and 0.409 µM in [1]; 2.45 µM and 3.22 µM in experiment [2]; 0.685 µM and 0.348 µM in experiment [3]; 3.09 µM and 3.84 µM in experiment [4]; 3.69 µM and 3.08 µM in experiment [5]; 1.66 µM in experiment [6]. For the same compound, the GI50 is 3.25 µM and 3.02 µM in experiment [7]; 2.68 µM and 2.84 µM in [8]; 0.319 µM in experiment [9]; 5.3 µM and 3.41 µM in experiment [10]. In addition, the TGI in experiment [1] is 15.4 µM and > 10 µM; in experiment [2], greater than 100 µM; in experiment [3], 5.72 µM and 1.65 µM; in experiment [4], 44.8 µM and > 10 µM; in experiment [5], 22.3 µM and > 10 µM; in [6] it was 10.7 µM and > 10 µM. Moreover, the TGI in [7] was 23.5 µM and > 10 µM; in experiment [8], 21.3 µM and > 10 µM; in experiment [9], 1.52 µM; in experiment [10] it was greater than 100 µM.

With `COc1cc(C2CC(c3ccc(Nc4ccnc5cc(Cl)ccc45)cc3)=NN2c2ccc(Cl)cc2)cc(OC)c1OC` (stereo not drawn), the GI50 was 1.67 µM in experiment [1]; 0.877 µM in [2]; 1.58 µM in experiment [3]; 2.5 µM in experiment [4]; 8.08 µM in [5]; 2.66 µM in [6]. The GI50 in experiment [7] is 3.08 µM; in [8], 4.91 µM; in [9], 1.11 µM; in experiment [10], 0.857 µM. Also, the TGI in experiment [1], in experiment [2], in [3], in [4], in experiment [5] and in experiment [6] was greater than 100 µM each time. For the same compound, the TGI is greater than 100 µM in [7], greater than 100 µM in experiment [8], 6.68 µM in experiment [9] and greater than 100 µM in experiment [10].

Turning to `CCNC(=O)O[C@H]1CN[C@H](C#Cc2cc3ncnc(Nc4ccc(OCc5cccc(F)c5)c(Cl)c4)c3s2)C1`, the GI50 is 6.59 µM in [1]; 9.83 µM in experiment [2]; 1.49 µM in [3]; 2.91 µM in experiment [4]; 4.72 µM in [5]; 9.47 µM in experiment [6]. Besides, the GI50 was 7.43 µM in experiment [7], 16.2 µM in experiment [8], 4.76 µM in experiment [9] and 9.45 µM in experiment [10]. Further, the TGI was greater than 23.1 µM in experiment [1]; greater than 25 µM in experiment [2]; greater than 18.4 µM in experiment [3]; greater than 25 µM in experiment [4]; greater than 25 µM in experiment [5]; greater than 25 µM in [6]. The TGI in experiment [7], in experiment [8], in experiment [9] and in [10] was greater than 25 µM throughout.

On to `CN(Cc1cc(C(C)(C)C)cc(Br)c1O)Cc1cc(C(C)(C)C)cc(Br)c1O`, for which the TGI in experiment [1] came out at 12.9 µM; in experiment [2], 12.1 µM; in experiment [3], 12.7 µM; in experiment [4], 10.4 µM; in experiment [5], 19.3 µM; in experiment [6] it was 15.9 µM. Further, the TGI in experiment [7] is 9.46 µM; in [8], 19.3 µM; in experiment [9], 13 µM; in experiment [10] it was 14 µM.

Turning to `O=C(OC[C@H]1O[C@H](OC(=O)c2cc(O)c(O)c(OC(=O)c3cc(O)c(O)c(O)c3)c2)[C@H](OC(=O)c2cc(O)c(O)c(OC(=O)c3cc(O)c(O)c(O)c3)c2)[C@@H](OC(=O)c2cc(O)c(O)c(OC(=O)c3cc(O)c(O)c(O)c3)c2)[C@@H]1OC(=O)c1cc(O)c(O)c(OC(=O)c2cc(O)c(O)c(O)c2)c1)c1cc(O)c(O)c(OC(=O)c2cc(O)c(O)c(O)c2)c1`, the GI50 is 1.67 µM in experiment [1]; 6.2 µM in experiment [2]; 2.61 µM in experiment [3]; 3.23 µM in experiment [4]; 3.57 µM in experiment [5]; 3.86 µM in experiment [6]. Moreover, the GI50 in [7] was 1.57 µM; in experiment [8] it was 2.57 µM; in experiment [9], 2.37 µM; in experiment [10] it was 9.63 µM. Moreover, the TGI in experiment [1] was greater than 25 µM; in [2], greater than 25 µM; in experiment [3], greater than 25 µM; in [4] it was greater than 25 µM; in experiment [5], greater than 25 µM; in experiment [6], 9.22 µM. The TGI in [7] was 6.98 µM; in [8], greater than 25 µM; in experiment [9], greater than 25 µM; in experiment [10], greater than 25 µM.

Regarding `O=C1CCc2c(sc3[nH]c(=S)n(Cc4ccc(Cl)cc4)c(=O)c23)C1`, the GI50 in experiment [1] was 0.361 µM; in [2], 0.347 µM; in [3], 0.277 µM; in [4], 0.479 µM; in experiment [5] it was 2.47 µM; in [6] it was 3.27 µM. The GI50 is 0.366 µM in experiment [7], 0.385 µM in experiment [8], 0.387 µM in experiment [9] and 0.324 µM in [10]. Also, the TGI in experiment [1] is 1.68 µM; in [2] it was 1.64 µM; in experiment [3], 1.21 µM; in [4] it was greater than 100 µM; in experiment [5], greater than 100 µM; in experiment [6], greater than 100 µM. Further, the TGI in [7] is greater than 100 µM; in experiment [8], greater than 100 µM; in experiment [9] it was greater than 81.4 µM; in experiment [10], greater than 100 µM.

Source of the values: PubChem BioAssay (NCI).
